Source: patent US20100179188A1, “NITROXIDE RADICAL AS TREATMENT FOR NEURODEGENERATION” (Office of Technology Transfer, NIH, priority 2007, published 2010)

Legend:
[1] = system: L-ferritin (L-Ft); assay: Western blot of L-ferritin in IRP2−/− embryonic fibroblasts; format: cell-based, mouse; conditions: 0.3 and 1.0 mM, 16 h, with or without FAC
Procedure: Cells: Embryonic fibroblasts of 13-day old embryos were isolated from wild type, IRP1−/− mice and IRP2−/− mice as described in LaVaute et al. supra. Myc-tagged HEK 293 Tet-on cell line, in which IRP2 expression was inducible, was prepared and cultured as described Bourdon et al., Blood Cells Mol Dis, 31, 247-255 (2003). Erythroblasts were harvested from bone marrow and purified as described in Cooperman et al., Blood, 106, 1084-1091 (2005).
Western blotting and antibodies: Protein analysis was carried out as described in LaVaute et al., supra. Equal amounts of protein (20-40 μg/lane) were separated on 13% SDSPAGE and transferred to nitrocellulose membranes. The membrane was blocked with 5% non-fat milk, 0.1% Triton X-100 in PBS and probed at RT in the same blocking buffer. IRP1 antibody was prepared against purified hIRP1 and used at 1:5000 dilution. L-ferritin antibody was raised in rabbit from L-ferritin protein purified from mouse livers. […]
To study the effect of Tempo1 on the IRE-binding activity of IRP1, IRP2−/− embryonic fibroblasts that were maintained in culture supplemented with 0, 0.3 and 1.0 mM Tempo1, with or without ferric ammonium citrate (FAC), for 16 h. […] Quantification was performed with the IQMac (IRP1 activity) or NIH Image (protein levels) program. Error bars represent the standard deviation calculated from the results of two different sets of experiments.

[2] = biological target: T1, IRP1 (Mus musculus, UniProt P28271); assay: IRE binding activity of IRP1 in brain-region lysates of IRP2−/− mice (gel-shift); format: in vivo; design: Lysates made from various brain regions of IRP2−/− mice; from tissue; host or cells: mouse brain (cerebellum, forebrain, brain-stem) lysates; conditions: lysates from cerebellum, brain-stem and forebrain of IRP2−/− mice, Tempo1 diet vs control diet
T1 sequence (P28271 1-889): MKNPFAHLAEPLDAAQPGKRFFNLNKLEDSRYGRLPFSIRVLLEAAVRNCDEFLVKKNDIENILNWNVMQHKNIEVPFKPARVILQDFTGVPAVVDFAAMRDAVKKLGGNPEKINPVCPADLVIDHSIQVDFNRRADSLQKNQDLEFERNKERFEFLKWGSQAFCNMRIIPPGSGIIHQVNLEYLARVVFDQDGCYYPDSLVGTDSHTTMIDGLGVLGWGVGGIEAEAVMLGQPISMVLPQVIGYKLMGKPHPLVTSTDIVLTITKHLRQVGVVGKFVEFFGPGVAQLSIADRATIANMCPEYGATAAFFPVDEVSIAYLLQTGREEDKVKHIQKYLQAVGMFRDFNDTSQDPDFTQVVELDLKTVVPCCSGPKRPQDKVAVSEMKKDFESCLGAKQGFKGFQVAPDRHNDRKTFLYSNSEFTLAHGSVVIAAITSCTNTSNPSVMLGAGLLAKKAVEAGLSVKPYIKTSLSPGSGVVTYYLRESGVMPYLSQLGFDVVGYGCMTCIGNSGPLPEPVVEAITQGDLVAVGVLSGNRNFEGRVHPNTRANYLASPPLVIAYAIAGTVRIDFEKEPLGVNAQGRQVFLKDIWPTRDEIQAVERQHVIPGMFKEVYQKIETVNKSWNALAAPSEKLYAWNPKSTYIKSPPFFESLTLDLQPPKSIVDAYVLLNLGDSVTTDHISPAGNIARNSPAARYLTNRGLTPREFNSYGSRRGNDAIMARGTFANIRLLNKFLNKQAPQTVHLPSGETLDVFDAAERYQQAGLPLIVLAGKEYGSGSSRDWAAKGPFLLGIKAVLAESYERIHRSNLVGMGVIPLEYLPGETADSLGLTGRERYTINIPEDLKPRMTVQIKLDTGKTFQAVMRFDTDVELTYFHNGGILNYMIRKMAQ
Procedure: Diet: The mice were weaned 3-4 weeks after their birth. Immediately after weaning, mice were maintained on either a Tempo1-supplemented or control diet. In the Tempo1-supplemented diet, powdered Tempo1 was uniformly mixed with bacon-flavored mouse chow by a “cold press” technique (Bio-Serv, Frenchtown, N.J., USA) at a concentration of 10 mg/g of food. Bacon-flavored chow without Tempo1 was used as the control diet.
Tissue and lysate preparation: Animals were euthanized and tissues were frozen in liquid nitrogen immediately after harvesting, and stored at −80° C. under argon. Experiments were performed on tissues that were pulverized in liquid N2-cooled mortars in an anaerobic chamber, and then lysed in lysis buffer that was deaerated by cyclic freezethaw and air-removal with argon. […]
Lysates made from various brain regions of IRP2−/− mice that were maintained on a control diet or on a Tempo1-supplemented diet were analyzed for IRE binding activity of IRP1 and for TfR1, IRP1, and actin protein levels by gel-shift assay and Western blot. […] FIG. 3b is a quantification of the results as intensity of the bands relative to the control, represented here as 100%. Quantification was performed with the IQMac (IRP1 activity) or NIH Image (protein levels) program. Error bars represent the standard deviation calculated from the results of two different sets of animals.

Question: Which results are given for `CC1(C)CC(O)CC(C)(C)N1[O]` [Tempo1]?
Answer: ferritin levels [1]: decreased; IRE-binding activity [2]: markedly increased
